pIC50: −log10 of the molar value.
How the values were obtained:
[1] = test system: NL4-3 with DIV (G36D) mutation in gp41; conditions: NL4-3, in vitro; cited from earlier work
HPIV-3 = conditions: HPIV-3-infected Hep2 cells and uninfected CV-1W cells; cited from earlier work
[2] = target: HIV-1 transmembrane glycoprotein gp41 (strain HIV-1 IIIB) (HIV-1 strain IIIB) (UniProt P04578); assay: cell-based or functional assay
RSV = conditions: RSV-infected and uninfected Hep-2 cells; cited from earlier work
HIV-1 IIIB = assay: Anti-HIV efficacy evaluation in fresh human PBMCs (albumin conjugates vs original peptides); format: cell-based; conditions: NA = IC50 not achieved
Procedure: HIV-1 IIIB was obtained through the AIDS Research and Reference Reagent Program, Division of AIDS, NIAID, NIH courtesy of Dr. Robert C. […] Fresh human peripheral blood mononuclear cells (PBMCs), seronegative for HIV and HBV, were isolated from blood of screened donors (Biological Specialty Corporation; Colmar, Pa.) using Lymphocyte Separation Medium (LSM; Cellgro® by Mediatech, Inc.; density 1.078+/−0.002 g/ml) following the manufacturer's instructions. Cells were stimulated by incubation in 4 μg/mL Phytohemagglutinin (PHA; Sigma) for 48-72 hours. Mitogenic stimulation was maintained by the addition of 20 U/mL recombinant human IL-2 (R&D Systems, Inc) to the culture medium. PHA-stimulated PBMCs from at least two donors were pooled, diluted in fresh medium and added to 96-well plates at 5×10^4 cells/well. Cells were infected (final MOI≅0.1) in the presence of 9 different concentrations of test compounds (triplicate wells/concentration) and incubated for 7 days. […] Following removal of supernatant samples, compound cytotoxicity was measured by the addition of 3-(4,5-dimethylthiazol-2-yl)-5-(3-carboxymethoxyphenyl)-2-(4-sulfophenyl)-2H-tetrazolium (MTS; CellTiter 96 Reagent, Promega) following the manufacturer's instructions. […] AZT (nucleoside reverse transcriptase inhibitor) was used as the assay control compound.

[3] = HIV-1 IIIB in PHA-stimulated PBMCs, 7 days

In the case of enfuvirtide, the “Resistance conferred by the DIV (G36D) mutation in gp41” value [1] is given as 8 fold.
In the case of “NSVALDPIDISIELNKAKSDLEESKEWIRRSNQKL [SEQ ID NO:27]”, the “Concentration inhibiting fusion and syncytia formation” value (HPIV-3) is listed as “less than 1 μg/ml”.
With “T-20 (DP-178, enfuvirtide, Fuzeon) (peptide)” the IC50 (50% inhibition of virus replication), HIV-1 IIIB in PBMC [2] was 2.2 nM and the IC90 (90% inhibition of virus replication), HIV-1 IIIB in PBMC [2] was 9.5 nM.
In the case of “IALLSTNKAVVSLSNGVSVLTSKVLDLKNYIDK [SEQ ID NO:24]”, the “Concentration inhibiting fusion and syncytia formation” value (RSV) is given as “less than 50 μg/ml”.
Work on C34 peptide yielded an IC50 (50% inhibition of virus replication), HIV-1 IIIB in PBMC [2] of 0.6 nM.
With `Cc1cn([C@H]2C[C@H](N=[N+]=[N-])[C@@H](CO)O2)c(=O)[nH]c1=O` [AZT] the pIC50 (HIV-1 IIIB; [3]) was 8.54, the IC90 (HIV-1 IIIB; [3]) was 26.9 nM and the “Selectivity Index” value (HIV-1 IIIB; from TC50 (MTS) and IC50 in PBMCs) was >346.

— patent US20090088377A1, “CYSTEIC ACID DERIVATIVES OF ANTI-VIRAL PEPTIDES” (priority 2007, published 2009)
